Drawing on patent US11919902B2, “Aryl-bipyridine amine derivatives as phosphatidylinositol phosphate kinase inhibitors” (HiberCell, Inc., priority 2017, dated 2024), this text covers IC50 for 16 compounds.

As a reminder, the IC50 is the midpoint of a concentration-inhibition curve.

Some results are limits rather than exact numbers.

The target in one assay is T1, GST tagged PIP4KtypeIIA (Homo sapiens, UniProt P48426).
T1 construct: made in house; host or cells: E. coli
T1 sequence (P48426 1-406): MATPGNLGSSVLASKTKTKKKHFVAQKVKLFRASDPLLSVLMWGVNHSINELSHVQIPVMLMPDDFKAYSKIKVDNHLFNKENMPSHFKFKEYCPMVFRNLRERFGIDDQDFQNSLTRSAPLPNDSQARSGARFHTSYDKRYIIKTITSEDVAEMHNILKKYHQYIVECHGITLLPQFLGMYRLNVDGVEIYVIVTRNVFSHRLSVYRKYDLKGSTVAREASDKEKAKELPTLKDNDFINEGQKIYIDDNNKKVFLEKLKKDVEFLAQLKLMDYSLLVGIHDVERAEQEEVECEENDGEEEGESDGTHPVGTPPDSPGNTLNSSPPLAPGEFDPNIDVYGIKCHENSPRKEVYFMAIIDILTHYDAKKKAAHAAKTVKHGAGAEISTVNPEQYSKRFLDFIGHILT
The assay is described as follows: ADP-glo kinase assay PIP4K 2A (PIP4KtypeIIA inhibition assay). As to conditions: Table 3; compounds listed under IC50 range headings; 10 uM ATP, 0.5 nM PIP4KIIA. It is filed as biochemical. The text has this:
GST tagged PIP4KtypeIIA and B enzymes were overexpressed in E. Coli and purified to >80% homogeneity. Phosphatidyl inositol-5-phosphate (PI5P, Cat. #850152, Avanti Polar Lipids Inc.) was used as the lipid substrate and phosphatidyl ethanolamine (DOPE 18:1, Cat. #850725, Avanti Polar Lipids Inc.) was used as the carrier lipid for assays. Ultrapure ATP and GTP was purchased from Bellbrooke Labs. ADP Glo reagents were obtained from Promega. Transcreener FI reagent was obtained from Bellbrooke labs.
1. HEPES buffer mix: 200 mM HEPES pH 7.4, 50 mM MgCl2, 0.05% v/v triton×100
2. HNE buffer: 20 mM HEPES, pH 7.4, 100 mM NaCl, 0.5 mM EGTA
3. H:E buffer: 30 mM HEPES, pH 7.4, 1 mM EGTA
Enzyme preparation: GST-tagged PIP4KtypeIIA (5 uL, 1.43 mg/mL) was diluted (1:10) to 50 uL using HNE buffer. From the 1:10 diluted stock, a 6.4 uL aliquot was diluted further to 5 mL using HNE buffer to yield 5× enzyme stock (2.5 nM).
Lipid Preparation: In a 10 mL pyrex glass vial, lug of PI5P and lug of DOPE were suspended in 2.5 mL of HEPES buffer mix and 2.5 mL of H:E buffer. The contents were mixed and sonicated for 3 min to yield a translucent lipid stock.
Compound Preparation: Compounds were stored as 5 mM stocks in neat DMSO as room temperature in glass vials. 5 mM stocks were diluted to 2 mM and then serially diluted (3×) in neat DMSO in 96 well polypropylene plates. From the serially diluted stocks, 3 uL was delivered into 250 uL of 25% DMSO (in water) to generate 5× compound stocks. Typically, the highest compound conc. was 24 uM.
The assay volume was kept at 25 uL. To each well of the reaction plate, 10 uL of lipid stock (1:1 ratio PI5P:DOPE) was delivered. This was followed by the addition of 5 uL of compound in 25% DMSO. Then, to each well, 5 uL of 2.5 nM (5×) typeIIA enzyme was delivered. The contents were mixed well and incubated for 1 h at 27 C. After 1 h, reaction was initiated by adding 5 uL of 50 uM ATP and the contents were mixed well with a multi-channel pipetteman. The final concentration of the reagents are as follows: 50 mM HEPES, pH 7.3, 10 mM MgCl2, 20 mM NaCl, 0.01% v/v triton-X100, 5% DMSO, 10 uM ATP, 80 uM (2 ug) PI5P, 2 ug DOPE, and 0.5 nM PIP4KIIA. Typically, the highest conc. of compounds was 4.8 uM and the lowest conc. was 0.
After 1 hr, the reaction was quenched by adding 25 uL of ADP Glo reagent. The contents were incubated for 1 hr. Afterwards, 50 uL of kinase detection reagent was delivered. The contents were incubated for another hour. The luminescence was read using Molecular Devices Paradigm plate reader. […] The blanks were averaged and subtracted from all other wells. Using a calibration curve, RLU was converted to uM ADP (product). IC50 was calculated by plotting the residual activity (expressed as % No inhibitor control) vs. log [Inh. conc.]
(In general: ADP-Glo turns the ADP formed in a reaction into a luminescent signal.)

In another assay the target is T2, GST tagged PIP4KtypeIIB (Homo sapiens, UniProt P78356).
T2 construct: made in house; host or cells: E. coli
T2 sequence (P78356 1-416): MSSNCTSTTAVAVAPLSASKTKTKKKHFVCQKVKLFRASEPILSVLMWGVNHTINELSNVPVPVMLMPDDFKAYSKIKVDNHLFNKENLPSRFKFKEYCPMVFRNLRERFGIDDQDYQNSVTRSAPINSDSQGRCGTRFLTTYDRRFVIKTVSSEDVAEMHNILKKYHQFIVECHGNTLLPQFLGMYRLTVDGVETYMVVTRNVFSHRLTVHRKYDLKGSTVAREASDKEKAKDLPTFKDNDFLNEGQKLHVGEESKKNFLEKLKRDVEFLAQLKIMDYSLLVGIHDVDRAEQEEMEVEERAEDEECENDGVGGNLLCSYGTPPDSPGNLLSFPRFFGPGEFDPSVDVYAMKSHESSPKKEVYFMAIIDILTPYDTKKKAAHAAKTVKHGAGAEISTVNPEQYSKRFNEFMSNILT
As to the kind of experiment: Trans-FI P kinase assay PIP4K2B (PIP4KtypeIIB inhibition assay). It counts as biochemical. As to conditions: Table 4; compounds listed under IC50 range headings; 100 uM GTP, 5 nM PIP4KIIB; read-out: Trans-FI P kinase assays: PIP4K2B IC50. The method in brief:
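Transcreener FI fluorescence, converted to GDP by calibration, tracked product from 5 nM E. coli-expressed GST-PIP4KIIB acting on 80 uM PI5P (DOPE carrier) with 100 uM GTP. Compound (top 4.8 uM final, 5% DMSO) was preincubated 1 h at 27 C before the 2 h reaction; IC50 fitted from residual activity.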

In assay [1] the target is T3, PIP4K2A (full length protein, SignalChem) (Homo sapiens, UniProt P48426).
T3 construct: 4 nM PIP4K2A (full length protein, SignalChem); purchased SignalChem
T3 sequence (P48426 1-406): T1 sequence (P48426 1-406)
As to the kind of experiment: Kinase Assay PIP4K2 A (Sprint); ADP-Glo biochemical assay. The settings on record: Table 2; compounds listed under IC50 range headings. The method in brief:
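ADP-Glo luminescence detected ADP after a 1 h RT reaction started with 60 μM ATP solution. Before that, full-length PIP4K2A (4 nM in mix) with 100 μM PI(5)P diC8 was pre-incubated 15 min with compounds in MOPS buffer pH 7.2, 25 mM MgCl2, 0.005% Tween 20. IC50 derived from % inhibition relative to DMSO over 10 three-fold concentrations.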

With `Cn1c(C(N)=O)cc2c(-c3cncc(-c4ccc(N5CCCC5=O)cc4)c3)cn(C)c2c1=O` [Example 263, 1,6-dimethyl-7-oxo-3-(5-(4-(2-oxopyrrolidin-1-yl)phenyl)pyridin-3-yl)-6,7-dihydro-1H-pyrrolo[2,3-c]pyridine-5-carboxamide], the IC50 on GST tagged PIP4KtypeIIA and on GST tagged PIP4KtypeIIB was 1000 to 2500 nM each time. As to `O=C1CCCN1c1ccc(-c2cncc(-c3ccnc4c3cc3n4CCN(c4ccccn4)C3=O)c2)cc1` [Example 207, 4-(5-(4-(2-oxopyrrolidin-1-yl)phenyl)pyridin-3-yl)-7-(pyridin-2-yl)-8,9-dihydropyrido[3′,2′:4,5]pyrrolo[1,2-a]pyrazin-6(7H)-one], the IC50 against GST tagged PIP4KtypeIIA and at GST tagged PIP4KtypeIIB was 10 to 100 nM in each case. For `O=C(NCCc1ncc[nH]1)c1cc2c(-c3cncc(-c4ccc(N5CCCC5)cc4)c3)ccnc2[nH]1` [Example 244, N-(2-(1H-imidazol-2-yl)ethyl)-4-(5-(4-(pyrrolidin-1-yl)phenyl)pyridin-3-yl)-1H-pyrrolo[2,3-b]pyridine-2-carboxamide], the IC50 on GST tagged PIP4KtypeIIA lay in the range of 100 to 1000 nM; at GST tagged PIP4KtypeIIB it was 10 to 100 nM. For `O=C(NC1CC1c1ccccc1)c1cc2c(-c3cncc(-c4ccc(N5CCCC5=O)cc4)c3)ccnc2[nH]1` (stereo not shown) [Example 264, 4-(5-(4-(2-oxopyrrolidin-1-yl)phenyl)pyridin-3-yl)-N-(2-phenylcyclopropyl)-1H-pyrrolo[2,3-b]pyridine-2-carboxamide], the IC50 on GST tagged PIP4KtypeIIA lay within 100 to 1000 nM; at GST tagged PIP4KtypeIIB, 10 to 100 nM.

With `CC(C)CNC(=O)c1cc2c(-c3cncc(-c4ccc(N5CCCC5=O)cc4)c3)ccnc2[nH]1` [Example 234, N-isobutyl-4-(5-(4-(2-oxopyrrolidin-1-yl)phenyl)pyridin-3-yl)-1H-pyrrolo[2,3-b]pyridine-2-carboxamide], the figures for the IC50 against GST tagged PIP4KtypeIIA and on GST tagged PIP4KtypeIIB were 100 to 1000 nM and 10 to 100 nM, respectively. The like results for `O=C1CCCN1c1ccc(-c2cncc(-c3n[nH]c4ncc(C5CC5)cc34)c2)cc1` [Example 283, 1-(4-(5-(5-cyclopropyl-1H-pyrazolo[3,4-b]pyridin-3-yl)pyridin-3-yl)phenyl)pyrrolidin-2-one] were, in that order, 10 to 100 nM and 10 to 100 nM. As to `O=C(NCCc1cccnc1)c1cc2c(-c3cncc(-c4ccc(N5CCCC5=O)cc4)c3)ccnc2[nH]1` [Example 237, 4-(5-(4-(2-oxopyrrolidin-1-yl)phenyl)pyridin-3-yl)-N-(2-(pyridin-3-yl)ethyl)-1H-pyrrolo[2,3-b]pyridine-2-carboxamide], the IC50 at GST tagged PIP4KtypeIIA was 100 to 1000 nM; on GST tagged PIP4KtypeIIB, 10 to 100 nM.

With `O=C1CCCN1c1ccc(-c2cncc(-c3c4n(c5ncc(Br)cc35)CCC4)c2)cc1` [Example 353, 1-(4-(5-(3-bromo-7,8-dihydro-6H-pyrido[3,2-b]pyrrolizin-5-yl)pyridin-3-yl)phenyl)pyrrolidin-2-one], the IC50 at GST tagged PIP4KtypeIIA and at GST tagged PIP4KtypeIIB was 10 to 100 nM throughout. Take `CN(C)C(=O)c1ccc(-c2cc(-c3ccnc4[nH]c(C(=O)NCCN)cc34)cnc2N)nc1` [Example 133, 4-(2′-amino-5-(dimethylcarbamoyl)-[2,3′-bipyridin]-5′-yl)-N-(2-aminoethyl)-1H-pyrrolo[2,3-b]pyridine-2-carboxamide]: the IC50 on GST tagged PIP4KtypeIIA lay in the range of 1000 to 2500 nM; on GST tagged PIP4KtypeIIB it was 100 to 1000 nM.

With `COCCNC(=O)c1cc2c(-c3cncc(-c4ccc(N5CCCC5=O)cc4)c3)ccnc2[nH]1` [Example 228, N-(2-methoxyethyl)-4-(5-(4-(2-oxopyrrolidin-1-yl)phenyl)pyridin-3-yl)-1H-pyrrolo[2,3-b]pyridine-2-carboxamide], the IC50 on GST tagged PIP4KtypeIIA was in the range of 100 to 1000 nM; on GST tagged PIP4KtypeIIB it was 10 to 100 nM. `Cc1c(-c2ccc(N3CCCC3=O)cc2)cncc1-c1cn(C)c2ncc(C(C)O)cc12` (stereo not shown) [Example 196, 1-(4-(5-(5-(1-hydroxyethyl)-1-methyl-1H-pyrrolo[2,3-b]pyridin-3-yl)-4-methylpyridin-3-yl)phenyl)pyrrolidin-2-one] yielded an IC50 on GST tagged PIP4KtypeIIA of 100 to 1000 nM. As for `O=C1CCCN1c1ccc(-c2cncc(-c3ccnc4nncn34)c2)cc1` [Example 340, 1-(4-(5-([1,2,4]triazolo[4,3-a]pyrimidin-5-yl)pyridin-3-yl)phenyl)pyrrolidin-2-one], the IC50 is over 5000 nM on GST tagged PIP4KtypeIIB and under 5000 nM in assay [1]. For `CN1CCn2c(cc3c(-c4cncc(-c5ccc(-c6nncn6CC6CC6)cc5)c4)ccnc32)C1=O` [Example 376, 4-(5-(4-(4-(cyclopropylmethyl)-4H-1,2,4-triazol-3-yl)phenyl)pyridin-3-yl)-7-methyl-8,9-dihydropyrido[3′,2′:4,5]pyrrolo[1,2-a]pyrazin-6(7H)-one] the same measures were 10 to 100 nM and 1000 to 2500 nM. The like results for `CN(C)C(=O)c1ccc(-c2cc(-c3cnc4c(c3)c(-c3cncnc3)cn4C)cnc2N)nc1` [Example 122, 2′-amino-N,N-dimethyl-5′-(1-methyl-3-(pyrimidin-5-yl)-1H-pyrrolo[2,3-b]pyridin-5-yl)-[2,3′-bipyridine]-5-carboxamide] were, in that order, 1000 to 2500 nM and 100 to 1000 nM. The like results for `CC(=O)Nc1ccc(-c2cn(C)c3ncc(-c4cncc(-c5ccc(N6CCCC6=O)cc5)c4)cc23)cn1` [Example 343, N-(5-(1-methyl-5-(5-(4-(2-oxopyrrolidin-1-yl)phenyl)pyridin-3-yl)-1H-pyrrolo[2,3-b]pyridin-3-yl)pyridin-2-yl)acetamide] were, in that order, 100 to 1000 nM and 5 to 100 nM.

Regarding `CN1CCn2c(cc3c(-c4cncc(-c5ccc(-c6nncn6C(C)(C)C)cc5)c4)ccnc32)C1=O` [Example 377, 4-(5-(4-(4-(tert-butyl)-4H-1,2,4-triazol-3-yl)phenyl)pyridin-3-yl)-7-methyl-8,9-dihydropyrido[3′,2′:4,5]pyrrolo[1,2-a]pyrazin-6(7H)-one], the IC50 lay in the range of 1 to 10 nM at GST tagged PIP4KtypeIIB and 5 to 100 nM in assay [1].
